# Reference: paper PMC12257544, “Fluorescent Isostere (Fluostere) of the Carboxylate: Design of hDHODH Fluorescent Inhibitors as Proof of Concept” (Journal of Medicinal Chemistry, 2025)
# Values joined by “and” are separate entries in the source; they are usually repeats but may differ in a detail not shown here. Equal entries are not always repeated.
# Columns and labels:
# THP-1 cells = experiment: Confocal fluorescence microscopy and Red-MitoTracker co-localization; format: cell-based, human; details: 10 μM, 24 h
# Procedure: Thus, compounds 11a and 14 were subsequently examined in the context of living cells to determine whether they retained their fluorescence profile after entry into target cells. First, both compounds were incubated for 24 h with THP-1 cells at a concentration of 10 μM. After washing with PBS buffer, cells were analyzed under confocal microscopy using an appropriate laser stimulation (λex: 405 nm, λem: […]) to excite the molecules.
# Co-localization experiments were performed to examine whether compound 11a may reach the cellular compartment where hDHODH is located. For this, a specific mitochondrial stain marker in the two cell lines in which the biological activities of 11a were observed, namely THP-1 and HCT-8 cells, was used. The compound was therefore incubated with THP-1 cells (Figure ) or HTC-8 cells (Figure ) at 37 °C for 24 h. Then, cells were stained with Red-MitoTracker (a specific fluorescent probe for mitochondrial targeting) for 30 min at 37 °C.
# For fluorescence analysis, 10 μM of target compounds were incubated with THP-1 for 24 h. After washing the cells with a PBS buffer solution, they were analyzed under confocal microscopy imaging technique using the appropriate laser to excite the molecule. For the colocalization experiments, HCT-8 cells (55,000 cells/well) were plated on μ-Slide 8 well high glass bottom (IBIDI, Gräfelfing, Germany) and treated for 24 h with 10 μM of 11a at 37 °C. Then, cells were stained with MitoTracker Red CMXRos (ThermoFischer, Carlsbad, CA, USA) (1:4000) for 30′ at 37 °C and after washing with PBS buffer solution, cells were visualized with a Leica TCS SP5 multiphoton-inverted confocal microscope equipped with LAS AF matrix software. Live cells were imaged using an HCX PL APO 63×/1.4 NA oil immersion objective. Images were collected with excitation of ligand 11a at λex = 405 nm and emission at λem = 500 nm, Red-MitoTracker at λex = 581 nm and emission at λem = 605 nm.
# [1] = Photophysical characterization (absorption, emission, QY, lifetime); format: physicochemical
# Procedure: UV–Vis absorption spectra were recorded on a Cary60 spectrometer. Photoemission spectra, luminescence lifetimes, and quantum yields were acquired with a HORIBA Jobin Yvon IBH Fluorolog-TCSPC spectrofluorometer equipped with a Quanta-φ integrating sphere. […] Emission-decay data were collected in 2048 channels to 10000 counts in the peak channel. IRF was measures using colloidal silica suspension in H2O to scatter light. Data were analyzed with the software DAS6 (TCSPC decay-analysis software) using a nonlinear least-squares method to fit of the decay to a sum of exponentials. The value of χ^2, residuals and the autocorrelation function (Durbin-Watson parameter) were used to determine the quality of the fit. For measurements in the presence of hDHODH, 11a was incubated, at 1 μM concentration in TRIS Buffer 0.1 mM (pH 8) with 0.1% DMSO, alone or with different concentrations of recombinant protein ranging from 31.5 to 504 nM concentration. After 5 min incubation UV–Vis absorption spectra were recorded on a Cary60 spectrophotometer and photoemission spectra were acquired with a HORIBA Jobin Yvon IBH Fluorolog-TCSPC spectrofluorometer with excitation λ of 366 nm and maximum of emission at 500 nm; a.u. data were analyzed with GraphPad Prism using One Site – Specific Binding equation.
# [2] = test system: unrelated GST-conjugated-protein; experiment: Fluorescence control with an unrelated GST-conjugated protein; format: binding; details: fixed amount of compound, increasing protein concentration
# Procedure: Because the isolated hDHODH used for the previous measurements, and in inhibition enzymatic assay, is the GST-tagged protein, we decided to confirm that the observed fluorescence enhancement resulted from specific binding of inhibitor 11a to the target protein and not from nonspecific interactions with the GST portion.
# Apoptosis test rescue with uridine:
# Figure S4. A) Analysis of the apoptotic rate induced by compound 11a, on THP-1 cell line (n = 3) with or without exogenous uridine at 100 µM. Compounds were utilized at 1 µM; apoptotic was evaluated after 3 days of treatment. DMSO: dimethyl sulfoxide. Cpd: compound. Ur: uridine. Statistical significance: Student’s t test: **p<0.01. B) Representative Annexin V-FITC/PI flow cytometry dot plots of THP-1 cells after 3 days of treatment in presence of vehicle (left), compound 11a (middle), compound 11a and uridine 100 µM. Data are representative of 3 independent experiments.
# Figure S5. Fluorescence-based analysis of the potential contribution of GST-tag to the emission restoration of compound 11a. […]
# increasing concentration versus a fixed amount of compound 11a. […]
# show protein-dependent fluorescence restoration. […]
structure (smiles),measurement,setting,value
"Oc1nn2ccccc2c1/C=C/c1c(F)c(F)c(-c2ccccc2)c(F)c1F [Compound 11a, (E)-3-(2-(2,3,5,6-Tetrafluoro-[1,1’-biphenyl]-4-yl)vinyl)pyrazolo[1,5-a]pyridin-2-ol]",intracellular localization,THP-1 cells; THP-1,localize in the cytosol
same,fluorescence in living cells,"THP-1 cells; THP-1, λex 405 nm",recovered a strong fluorescence
same,co-localization with Red-MitoTracker,THP-1 cells; THP-1 cells,localize into mitochondria
same,emission in PBS solution,"[1]; PBS, polar protic solvent",completely quenched
same,emission in TRIS buffer,"[1]; TRIS buffer (pH 8), conditions of the enzymatic assay, no protein",absence of emission
same,Lifetime,[1]; in ACN,<1 ns
same,QY (luminescence quantum yield),[1]; in ACN,0.12
same,Stokes shift,[1]; in ACN,4174 cm^–1
same,λabs,[1]; in ACN,442 nm
same,λem,[1]; in ACN,535 nm and 542 nm
same,fluorescence in the presence of an unrelated GST-conjugated protein,[2],no restoration of fluorescence
